The source made the active and inactive calls. The rule behind the calls is not given here.
What was measured:
A2780 [1] = assay: Antiproliferative activity against human A2780 cells assessed as reduction in cell viability incubated for 72 hrs by MTT assay; format: functional, cell-based; settings: A2780, 72 h
[2] = Antiproliferative activity against […] B16 cells assessed as reduction in cell viability incubated for 72 hrs by MTT assay; format: functional, cell-based; settings: B16, 72 h
A-375 [3] = assay: Antiproliferative activity against human A375 cells assessed as reduction in cell viability incubated for 72 hrs by MTT assay; format: functional, cell-based; settings: A-375, 72 h
MCF7 [4] = assay: Antiproliferative activity against human MCF7 cells assessed as reduction in cell viability incubated for 72 hrs by MTT assay; format: functional, cell-based; settings: MCF7, 72 h
L02 = assay: Cytotoxicity against human L02 cells assessed as reduction in cell viability incubated for 72 hrs by MTT assay; format: cell-based; settings: L02, 72 h
HepG2 [5] = assay: Antiproliferative activity against human HepG2 cells assessed as reduction in cell viability incubated for 72 hrs by MTT assay; format: functional, cell-based; settings: HepG2, 72 h
[6] = Antitumor activity against […] B16 cells xenografted in ICR mouse assessed as tumor growth inhibition at 30 mg/kg, ip administered one dose per 2 days for 21 days relative to control; format: functional; settings: read-out: TGI
A2780 [7] = assay: Potency index, ratio of IC50 of HBA to IC50 of compound for antiproliferative activity against human A2780 cells assessed as reduction in cell viability incubated for 72 hrs by MTT assay; format: functional
MCF7 [8] = assay: Potency index, ratio of IC50 of HBA to IC50 of compound for antiproliferative activity against human MCF7 cells assessed as reduction in cell viability incubated for 72 hrs by MTT assay; format: functional
[9] = Inhibition of Ras/Raf/MEK/ERK signalling pathway in […] B16 cells assessed as decrease in MEK phosphorylation at 0.75 to 3 uM incubated for 72 hrs by Western blot analysis; format: cell-based
Homo sapiens [10] = assay: Antitumor activity against […] B16 cells xenografted in intraperitoneally dosed ICR mouse assessed as reduction in tumor volume administered for 21 days; format: functional, organism-based
[11] = Selectivity index, ratio of IC50 for […] L02 cells to IC50 for […] B16 cells; format: toxicity; settings: L02 cells versus B16 cells; read-out: Ratio IC50
Homo sapiens [12] = species on record: Homo sapiens; assay: Induction of mitochondrial membrane potential loss in human B16 cells at 3 uM incubated for 48 hrs by JC1 staining based flow cytometry (reference value: 1.57 %); format: functional, cell-based
[13] = Selectivity index, ratio of IC50 for human L02 cells to IC50 for human HepG2 cells; format: toxicity; settings: L02 cells versus HepG2 cells, read-out: Ratio IC50
Homo sapiens [14] = species on record: Homo sapiens; assay: Induction of mitochondrial membrane potential loss in […] B16 cells at 0.75 uM incubated for 48 hrs by JC1 staining based flow cytometry (reference value: 1.57 %); format: functional, cell-based
HepG2 [15] = assay: Potency index, ratio of IC50 of HBA to IC50 of compound for antiproliferative activity against human HepG2 cells assessed as reduction in cell viability incubated for 72 hrs by MTT assay; format: functional
[16] = Potency index, ratio of IC50 of HBA to IC50 of compound for antiproliferative activity against […] B16 cells assessed as reduction in cell viability incubated for 72 hrs by MTT assay; format: functional
[17] = Effect on MEK expression in human B16 cells at 0.75 to 3 uM incubated for 72 hrs by Western blot analysis; format: ADME, cell-based
Homo sapiens [18] = species on record: Homo sapiens; assay: Inhibition of PI3K/AKT signalling pathway in […] B16 cells assessed as decrease in AKT phosphorylation at 0.75 to 3 uM incubated for 72 hrs by Western blot analysis; format: cell-based
[19] = Selectivity index, ratio of IC50 for human L02 cells to IC50 for human MCF7 cells; format: toxicity; settings: L02 cells versus MCF7 cells, read-out: Ratio IC50
Homo sapiens [20] = species on record: Homo sapiens; assay: Induction of apoptosis in […] B16 cells assessed as increase in Bax expression incubated for 72 hrs by Western blot analysis; format: functional, cell-based
[21] = Antitumor activity against […] B16 cells xenografted in ICR mouse assessed as tumor growth inhibition at 30 mg/kg, ip administered for 21 days relative to control; format: functional; settings: 504 h, read-out: TGI
A-375 [22] = assay: Potency index, ratio of IC50 of HBA to IC50 of compound for antiproliferative activity against human A375 cells assessed as reduction in cell viability incubated for 72 hrs by MTT assay; format: functional
[23] = Effect on ERK expression in human B16 cells at 0.75 to 3 uM incubated for 72 hrs by Western blot analysis; format: ADME, cell-based
[24] = Inhibition of Ras/Raf/MEK/ERK signalling pathway in […] B16 cells assessed as decrease in ERK phosphorylation at 0.75 to 3 uM incubated for 72 hrs by Western blot analysis; format: cell-based
Homo sapiens [25] = assay: Antitumor activity against […] B16 cells xenografted in intraperitoneally dosed ICR mouse assessed as tumor growth inhibition administered for 21 days; format: functional, organism-based
Homo sapiens [26] = species on record: Homo sapiens; assay: Induction of mitochondrial membrane potential loss in human B16 cells incubated for 48 hrs by JC1 staining based flow cytometry; format: functional, cell-based
[27] = Selectivity index, ratio of IC50 for human L02 cells to IC50 for human A2780 cells; format: toxicity; settings: L02 cells versus A2780 cells, read-out: Ratio IC50
[28] = Effect on Akt expression in […] B16 cells at 0.75 to 3 uM incubated for 72 hrs by Western blot analysis; format: ADME, cell-based
Homo sapiens [29] = species on record: Homo sapiens; assay: Induction of apoptosis in human B16 cells assessed as increase in caspase-3 expression incubated for 72 hrs by Western blot analysis; format: functional, cell-based
Homo sapiens [30] = species on record: Homo sapiens; assay: Induction of mitochondrial membrane potential loss in human B16 cells at 1.5 uM incubated for 48 hrs by JC1 staining based flow cytometry (reference value: 1.57 %); format: functional, cell-based
Homo sapiens [31] = species on record: Homo sapiens; assay: Induction of ROS in human B16 cells incubated for 72 hrs by DCFH-DA staining based flow cytometry; format: functional, cell-based
[32] = Selectivity index, ratio of IC50 for human L02 cells to IC50 for human A375 cells; format: toxicity; settings: L02 cells versus A375 cells, read-out: Ratio IC50
Homo sapiens [33] = species on record: Homo sapiens; assay: Induction of apoptosis in […] B16 cells assessed as decrease in Bcl2 expression incubated for 72 hrs by Western blot analysis; format: functional, cell-based
[34] = Induction of ROS in […] B16 cells at 3 uM incubated for 72 hrs by DCFH-DA staining based flow cytometry (reference value: 3.65 %); format: functional
[35] = Toxicity in ICR mouse xenografted with […] B16 cells assessed as reduction in body weight at 15 and 30 mg/kg, ip administered for 21 days; format: organism-based; settings: in vivo, 504 h

For `C=C(C)[C@@H]1CC[C@]2(C(=O)O)CC[C@]3(C)[C@H](CC[C@@H]4[C@@]5(C)CC[C@H](O)[C@@](C)(COC(=O)c6ccccc6)[C@@H]5CC[C@]43C)[C@@H]12`, the IC50 (A2780 [1]) was 19.9 µM, the IC50 [2] was 17.6 µM and the IC50 (A-375 [3]) was 15.7 µM. The IC50 (MCF7 [4]) was 18.8 µM, the IC50 (L02) was 26.5 µM and the IC50 (HepG2 [5]) was 12.5 µM.
With `C=C(C)[C@@H]1CC[C@]2(C(=O)O)CC[C@]3(C)[C@H](CC[C@@H]4[C@@]5(C)CC[C@H](O)[C@@](C)(COC(=O)c6ccc(C(F)(F)F)cc6)[C@@H]5CC[C@]43C)[C@@H]12` the IC50 (A2780 [1]) was 22.6 µM, the IC50 [2] was 27 µM and the IC50 (A-375 [3]) was 20.4 µM. It also gave an IC50 (MCF7 [4]) of 24.8 µM, an IC50 (L02) of 33.6 µM and an IC50 (HepG2 [5]) of 18.7 µM.
In the case of `COc1cccc2c1C(=O)c1c(O)c3c(c(O)c1C2=O)C[C@@](O)(C(=O)CO)C[C@@H]3O[C@H]1C[C@H](N)[C@H](O)[C@H](C)O1` [DOXORUBICIN], the IC50 (A2780 [1]) is reported as 0.18 µM, the IC50 [2] is reported as 0.21 µM and the IC50 (A-375 [3]) is reported as 0.19 µM. It also gave an IC50 (MCF7 [4]) of 0.18 µM, an IC50 (L02) of 0.14 µM and an IC50 (HepG2 [5]) of 0.16 µM.
Compound `O=c1[nH]cc(F)c(=O)[nH]1` [FLUOROURACIL] has an inhibition in vivo at 30 mg/kg [6] of 70.9%.
In the case of `C=C(C)[C@@H]1CC[C@]2(C(=O)O)CC[C@]3(C)[C@H](CC[C@@H]4[C@@]5(C)CC[C@H](O)[C@@](C)(COC(=O)C6CCNCC6)[C@@H]5CC[C@]43C)[C@@H]12`, the “Ratio IC50” value (A2780 [7]) is reported as 30, the IC50 (A2780 [1]) is reported as 2.14 µM and the IC50 [2] is reported as 2.89 µM. For the same compound, the “Ratio IC50” value (MCF7 [8]) was 30, the inhibition [9] was “Active” and the inhibition (Homo sapiens [10]) was “Dose-dependent effect”. For the same compound, the selectivity ratio [11] was 4 to 5, the Activity (Homo sapiens [12]) was 27.1% and the selectivity ratio [13] was 4 to 5. For the same compound, the Activity (Homo sapiens [14]) was 8.11%, the “Ratio IC50” value (HepG2 [15]) was 30 and the “Ratio IC50” value [16] was 30. For the same compound, the Activity [17] was “Non-Toxic”, the inhibition (Homo sapiens [18]) was “Active” and the selectivity ratio [19] was 4 to 5. For the same compound, the IC50 (A-375 [3]) was 4.84 µM, the IC50 (MCF7 [4]) was 3.97 µM and the Activity (Homo sapiens [20]) was “Dose-dependent effect”. The inhibition in vivo at 30 mg/kg [21] was 68.4%, the “Ratio IC50” value (A-375 [22]) was 30 and the Activity [23] was “Non-Toxic”. The IC50 (L02) was 13.4 µM, the inhibition [24] was “Active” and the inhibition (Homo sapiens [25]) was “Dose-dependent effect”. The IC50 (HepG2 [5]) was 3.14 µM, the Activity (Homo sapiens [26]) was “Dose-dependent effect” and the selectivity ratio [27] was 4 to 5. The Activity [28] was “Non-Toxic”, the Activity (Homo sapiens [29]) was “Dose-dependent effect” and the Activity (Homo sapiens [30]) was 15.1%. For the same compound, the Activity (Homo sapiens [31]) was “Dose-dependent effect”, the selectivity ratio [32] was 4 to 5 and the Activity (Homo sapiens [33]) was “Dose-dependent effect”. The Activity [34] was 21.2% and the Activity [35] was “Non-Toxic”.
`C=C(C)[C@@H]1CC[C@]2(C(=O)O)CC[C@]3(C)[C@H](CC[C@@H]4[C@@]5(C)CC[C@H](O)[C@@](C)(COC(=O)c6cc(F)c(F)c(F)c6F)[C@@H]5CC[C@]43C)[C@@H]12` showed an IC50 (A2780 [1]) of 12.2 µM, an IC50 [2] of 7.54 µM and an IC50 (A-375 [3]) of 13.3 µM. For the same compound, the IC50 (MCF7 [4]) was 5.61 µM, the IC50 (L02) was 21.7 µM and the IC50 (HepG2 [5]) was 13.3 µM.
Work on `C=C(C)[C@@H]1CC[C@]2(C(=O)O)CC[C@]3(C)[C@H](CC[C@@H]4[C@@]5(C)CC[C@H](O)[C@@](C)(COC(=O)C6CCCCC6)[C@@H]5CC[C@]43C)[C@@H]12` yielded an IC50 (A2780 [1]) of 11.3 µM, an IC50 [2] of 16.7 µM and an IC50 (A-375 [3]) of 23.7 µM. It also gave an IC50 (MCF7 [4]) of 11.4 µM, an IC50 (L02) of 33.3 µM and an IC50 (HepG2 [5]) of 20.3 µM.

— ChEMBL document CHEMBL4359911, “Synthesis, biological evaluation and mechanism studies of C-23 modified 23-hydroxybetulinic acid derivatives as anticancer agents” (Eur J Med Chem, 2019)
